Measurements from patent publication US11266643B2, “Triaryl compounds for treatment of PD-L1 diseases” (CHEMOCENTRYX, INC., priority 2019, dated 2022).

Target: human PD-L1 (Homo sapiens (Human), UniProt Q9NZQ7)
Assay: Enzyme-Linked Immunosorbent Assay (ELISA), PD-1/PD-L1 binding
Conditions: PD-1/PD-L1 ELISA, human PD-L1 coated plates, Table 1
Outline: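 Plates coated with […] human PD-L1 overnight at 4° C, blocked, then 1:5 serial compound dilutions added with human PD-1 […] 0.31 μg/mL for 1 h at 37° C. Bound PD-1 detected with streptavidin-HRP and TMB (20 min, 37° C); absorbance read at 450 nm after H2SO4 stop.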

Chain of human PD-L1 (Q9NZQ7 19-239): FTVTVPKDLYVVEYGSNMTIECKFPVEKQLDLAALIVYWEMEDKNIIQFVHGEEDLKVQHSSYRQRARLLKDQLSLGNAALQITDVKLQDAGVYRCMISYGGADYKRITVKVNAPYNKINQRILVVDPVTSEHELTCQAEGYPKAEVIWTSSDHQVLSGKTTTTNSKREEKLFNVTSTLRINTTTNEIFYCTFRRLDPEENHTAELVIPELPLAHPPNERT

| IC50 [nM] | SMILES |
| --- | --- |
| 10 to 1000 | COc1cc(-c2cccc(-c3cccc(NC(=O)c4ccc(Cl)cn4)c3C)c2C)cc(F)c1CN1CC(C(=O)O)C1 [Example 1.369] |
| 10 to 1000 | COc1cc(-c2cccc(-c3cccc(NC(=O)c4ccccn4)c3F)c2C)cc(F)c1CN1CC(C(=O)O)C1 [Example 1.370] |
| < 10 | COc1cc(-c2cccc(-c3cccc(NC(=O)c4ccc(C)cn4)c3C)c2C)cc(F)c1CN1CC(C(=O)O)C1 [Example 1.371] |
| 10 to 1000 | COc1cc(-c2cccc(-c3cccc(NC(=O)c4ccccn4)c3C)c2C)cc(F)c1CN1CCOC[C@@H]1CO [Example 1.372] |
| 10 to 1000 | COc1cc(-c2cccc(-c3cccc(NC(=O)c4ccccn4)c3C)c2C)cc(F)c1CN1CCOC[C@H]1CO [Example 1.373] |
| 10 to 1000 | COc1cc(-c2cccc(-c3cccc(NC(=O)c4ccccn4)c3)c2C)cc(F)c1CN1CC(C(=O)O)C1 [Example 1.375] |
| 10 to 1000 | COc1cc(-c2cccc(-c3cccc(NC(=O)c4ccccn4)c3C)c2C)cc(F)c1CNC(CO)CO [Example 1.376] |
| 1000 to 10000 | COc1cc(-c2cccc(-c3cccc(NC(=O)c4ccccn4)c3C)c2C)cc(F)c1CN1CCCC[C@@H]1C(=O)O [Example 1.377] |
| < 10 | COc1cc(-c2cccc(-c3cccc(NC(=O)c4ccccn4)c3C)c2C)cc(F)c1CNC(CO)(CO)CO [Example 1.379] |
| 10 to 1000 | COc1cc(-c2cccc(-c3cccc(NC(=O)c4ccccn4)c3C)c2C)cc(F)c1CN1CCCC[C@H]1C(=O)O [Example 1.380] |
| < 10 | COc1cc(-c2cccc(-c3cccc(NC(=O)c4ccccn4)c3C)c2C)cc(F)c1CN1CC(C(=O)O)C1 [Example 1.381] |
| 10 to 1000 | COc1cc(-c2cccc(-c3cccc(NC(=O)c4ccccn4)c3C)c2C)cc(F)c1CNCC(=O)O [Example 1.385] |
| 10 to 1000 | COc1cc(-c2cccc(-c3cccc(NC(=O)c4cccc(N)n4)c3C)c2C)cc(F)c1CN [Example 1.386] |
| < 10 | COc1cc(-c2cccc(-c3cccc(NC(=O)c4ccccn4)c3C)c2C)cc(F)c1CN1CC(O)C1 [Example 1.388] |
| 1000 to 10000 | COc1cc(-c2cccc(-c3cccc(NC(=O)c4ccnc(N)c4)c3C)c2C)cc(F)c1CNCCO [Example 1.389] |
| 1000 to 10000 | COc1cc(-c2cccc(-c3cccc(NC(=O)c4ccc(N)nc4)c3C)c2C)cc(F)c1CNCCO [Example 1.390] |
| 10 to 1000 | COc1cc(-c2cccc(-c3cccc(NC(=O)N4CCNCC4)c3C)c2C)cc(F)c1CN [Example 1.392] |
| 10 to 1000 | COc1cc(-c2cccc(-c3cccc(NC(=O)C4CCN(CCO)CC4)c3C)c2C)cc(F)c1CN [Example 1.393] |
| 1000 to 10000 | COc1cc(-c2cccc(-c3cccc(NC(=O)C4CCCNC4)c3C)c2C)cc(F)c1CN (stereo not shown) [Example 1.394] |
| 10 to 1000 | COc1cc(-c2cccc(-c3cccc(NC(=O)C4CCN(CCO)CC4)c3C)c2C)cc(F)c1CNCCO [Example 1.395] |
| < 10 | COc1cc(-c2cccc(-c3cccc(NC(=O)c4ccccn4)c3C)c2C)cc(F)c1CNCCO [Example 1.396] |
| 10 to 1000 | COc1cc(-c2cccc(-c3cccc(NC(=O)C4CCNCC4)c3C)c2C)cc(F)c1CNCCO [Example 1.397] |

Same assay, conditions: human PD-1/PD-L1 ELISA, plates coated with human PD-L1

| IC50 [nM] | SMILES |
| --- | --- |
| < 10 | CNCc1c(F)cc(-c2cccc(-c3cccc(NC(=O)c4nc5c(s4)CN(CCO)CC5)c3F)c2C)cc1OC [Example 1.398] |
| < 10 | COc1cc(-c2cccc(-c3cccc(NC(=O)c4ccc(CNCCO)cn4)c3C)c2C)cc(F)c1CNCCS(=O)(=O)O [Example 1.399] |
| < 10 | COc1cc(-c2cccc(-c3cccc(NC(=O)c4nc5c(s4)CN(CCO)CC5)c3F)c2C)cc(F)c1CNCCO [Example 1.400] |
| < 10 | COc1cc(-c2cccc(-c3cccc(NC(=O)c4ccc(CNCCO)cn4)c3C)c2C)cc(F)c1CNCCCC(=O)O [Example 1.401] |
| < 10 | COc1cc(-c2cccc(-c3cccc(NC(=O)c4ccc(CN[C@@](C)(CO)C(=O)O)cn4)c3C)c2C)cc(F)c1CN[C@@](C)(CO)C(=O)O [Example 1.402] |
| < 10 | COc1cc(-c2cccc(-c3cccc(NC(=O)c4nc5c(s4)CNCC5)c3F)c2C)cc(F)c1CNCCCC(=O)O [Example 1.403] |
| < 10 | COc1cc(-c2cccc(-c3cccc(NC(=O)c4ccc(CNCCO)cn4)c3C)c2C)cc(F)c1CNCCO [Example 1.404] |

Same assay, conditions: plate-coated human PD-L1, biotinylated Human PD-1, absorbance at 450 nm

| IC50 [nM] | SMILES |
| --- | --- |
| < 10 | COc1c(CNC[C@@H]2CCC(=O)N2)ccc(-c2cccc(-c3cccc(NC(=O)c4cn(C)c(=O)n(C)c4=O)c3Cl)c2Cl)c1F [Example 2.001] |
| < 10 | COc1cc(-c2cccc(-c3cccc(NC(=O)c4cn(C)c(=O)n(C)c4=O)c3Cl)c2Cl)cc(F)c1CN1CC2(CCNC2=O)C1 [Example 2.002] |
| < 10 | COc1cc(-c2cccc(-c3cccc(NC(=O)c4cn(C)c(=O)n(C)c4=O)c3Cl)c2Cl)cc(F)c1CN1CCC[C@@H](C(=O)O)C1 [Example 2.003] |
| < 10 | COc1cc(-c2cccc(-c3cccc(NC(=O)c4cn(C)c(=O)n(C)c4=O)c3Cl)c2Cl)cc(F)c1CN1CCC(C(=O)O)CC1 [Example 2.004] |
| < 10 | COc1cc(-c2cccc(-c3cccc(NC(=O)c4cn(C)c(=O)n(C)c4=O)c3Cl)c2Cl)cc(F)c1CN1CCC(C)(C(=O)O)CC1 [Example 2.005] |
| 10 to 1000 | COc1cc(-c2cccc(-c3cccc(NC(=O)c4cn(C)c(=O)n(C)c4=O)c3C)c2Cl)cc(F)c1CN1CCC2(CCNC2=O)CC1 [Example 2.006] |
| < 10 | COc1cc(-c2cccc(-c3cccc(NC(=O)c4cn(C)c(=O)n(C)c4=O)c3C)c2Cl)cc(F)c1CN1CCC2(CCNC2=O)C1 (stereo not shown) [Example 2.007] |
| < 10 | COc1cc(-c2cccc(-c3cccc(NC(=O)c4cn(C)c(=O)n(C)c4=O)c3Cl)c2Cl)cc(F)c1CN1CC(C)(C(=O)O)C1 [Example 2.008] |
| < 10 | COc1cc(-c2cccc(-c3cccc(NC(=O)c4cn(C)c(=O)n(C)c4=O)c3Cl)c2Cl)cc(F)c1CN1CCC(C)(O)CC1 [Example 2.009] |
| < 10 | COc1cc(-c2cccc(-c3cccc(NC(=O)c4cn(C)c(=O)n(C)c4=O)c3Cl)c2Cl)cc(F)c1CN1CC[C@@H](C(=O)O)C1 [Example 2.010] |
| < 10 | COc1cc(-c2cccc(-c3cccc(NC(=O)c4cn(C)c(=O)n(C)c4=O)c3C)c2C)cc(F)c1CN1CC2(CCNC2=O)C1 [Example 2.011] |
| < 10 | COc1cc(-c2cccc(-c3cccc(NC(=O)c4cn(C)c(=O)n(C)c4=O)c3C)c2Cl)cc(F)c1CN1CC2(CCNC2=O)C1 [Example 2.012] |
| < 10 | COc1cc(-c2cccc(-c3cccc(NC(=O)c4cn(C)c(=O)n(C)c4=O)c3C)c2Cl)cc(F)c1CN1CCC(C)(C(=O)O)CC1 [Example 2.013] |
| < 10 | COc1cc(-c2cccc(-c3cccc(NC(=O)c4cn(C)c(=O)n(C)c4=O)c3C)c2C)cc(F)c1CN1CC(C(=O)O)C1 [Example 2.014] |
| < 10 | COc1cc(-c2cccc(-c3cccc(NC(=O)c4cn(C)c(=O)n(C)c4=O)c3C)c2Cl)cc(F)c1CN1CCC[C@@H](C(=O)O)C1 [Example 2.015] |
| < 10 | COc1cc(-c2cccc(-c3cccc(NC(=O)c4cn(C)c(=O)n(C)c4=O)c3C)c2Cl)cc(F)c1CN1CC[C@@H](O)C1 [Example 2.016] |
| < 10 | COc1cc(-c2cccc(-c3cccc(NC(=O)c4cn(C)c(=O)n(C)c4=O)c3C)c2Cl)cc(F)c1CN1CC(C)(C(=O)O)C1 [Example 2.017] |
